Data reported in patent US12098148B2, “Therapeutic compounds” (C4X Discovery Limited, priority 2018, dated 2024).
Where two headings read alike, the source gives them in different places.

Legend:
[1] = test system: NQO1 mRNA in BEAS-2B cells; assay: Beas2B NQO1 mRNA cell based assay; parameters: species or system human; settings: Homo sapiens, 24 h compound treatment, increase in NQO1 mRNA vs vehicle (0.1% DMSO), read-out: EC50
How it was run: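 BEAS-2B human bronchial epithelial cells exposed to compound for 24 h at 37 °C, 5% CO2. NQO1 mRNA measured by one-step TaqMan RT-qPCR on unpurified lysates, normalized to β-actin; relative expression by ΔΔCT method.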

[2] = target: human KEAP1 (N-term, residues 321-609) (Homo sapiens, UniProt Q14145); assay: biochemical;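 note: fluorescence polarization competition assay of Kelch domain binding to NRF2, 12-point 1:3 dilution series from 10 µM, read after 1 h at room temperature, floor 10 nM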
Sequence of human KEAP1 (N-term, residues 321-609) (Q14145 321-609): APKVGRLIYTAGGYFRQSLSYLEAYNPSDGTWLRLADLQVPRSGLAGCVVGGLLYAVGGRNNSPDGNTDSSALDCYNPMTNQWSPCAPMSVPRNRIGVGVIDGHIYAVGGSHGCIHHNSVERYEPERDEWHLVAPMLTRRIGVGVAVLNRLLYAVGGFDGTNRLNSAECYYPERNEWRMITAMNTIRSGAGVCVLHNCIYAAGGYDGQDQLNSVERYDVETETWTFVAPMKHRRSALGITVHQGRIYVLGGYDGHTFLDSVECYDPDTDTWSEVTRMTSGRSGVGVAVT

| Structure (SMILES) | IC50 [2] | EC50 ([1]; BEAS-2B, 24 h) | EC50 [1] |
| --- | --- | --- | --- |
| CC(C)n1cc(COc2cccc3c2[C@@H](CN2Cc4ccccc4C2=O)N(C(=O)[C@@H]2CCCC[C@@H]2C(=O)O)CC3)nn1 [Example 17, (1S,2R)-2-((S)-8-((1-Isopropyl-1H-1,2,3-triazol-4-yl)methoxy)-1-((1-oxoisoindolin-2-yl)methyl)-1,2,3,4-tetrahydroisoquinoline-2-carbonyl)cyclohexane-1-carboxylic acid] | 9.7 nM | 110 nM |  |
| COc1cc(COc2ccc(Br)c3c2[C@@H](CN2Cc4ccccc4C2=O)N(C(=O)[C@@H]2CCCC[C@@H]2C(=O)O)CC3)cc2nnn(C)c12 [Example 37, (1S,2R)-2-((S)-5-bromo-8-((7-methoxy-1-methyl-1H-benzo[d][1,2,3]triazol-5-yl)methoxy)-1-((1-oxoisoindolin-2-yl)methyl)-1,2,3,4-tetrahydroisoquinoline-2-carbonyl)cyclohexane-1-carboxylic acid] | 13 nM | 44 nM |  |
| Cn1nnc(COc2ccc(Cl)c3c2[C@@H](CN2CC4(CC4)CC2=O)N(C(=O)[C@@H]2CCCC[C@]2(C)C(=O)O)CC3)c1C1CC1 [Example 159, (1S,2R)-2-((S)-5-chloro-8-((5-cyclopropyl-1-methyl-1H-1,2,3-triazol-4-yl)methoxy)-1-((6-oxo-5-azaspiro[2.4]heptan-5-yl)methyl)-1,2,3,4-tetrahydroisoquinoline-2-carbonyl)-1-methylcyclohexane-1-carboxylic acid] | 6.7 nM | 0.22 nM |  |
| Cn1nnc(COc2ccc(Cl)c3c2[C@@H](CN2CC4(CC4)CC2=O)N(C(=O)[C@@H]2CC=CC[C@]2(C)C(=O)O)CC3)c1C(F)F [Example 201, (1S,6R)-6-((S)-5-chloro-8-((5-(difluoromethyl)-1-methyl-1H-1,2,3-triazol-4-yl)methoxy)-1-((6-oxo-5-azaspiro[2.4]heptan-5-yl)methyl)-1,2,3,4-tetrahydroisoquinoline-2-carbonyl)-1-methylcyclohex-3-ene-1-carboxylic acid] | 3.3 nM | 0.33 nM |  |
| [2H][C@@H]1CC[C@](C)(C(=O)O)[C@H](C(=O)N2CCc3c(Cl)ccc(OCc4nnn(C)c4C(F)F)c3[C@H]2CN2CC3(CC3)CC2=O)C1 [Example 219, (1S,2R,4R)-2-((S)-5-chloro-8-((5-(difluoromethyl)-1-methyl-1H-1,2,3-triazol-4-yl)methoxy)-1-((6-oxo-5-azaspiro[2.4]heptan-5-yl)methyl)-1,2,3,4-tetrahydroisoquinoline-2-carbonyl)-1-methylcyclohexane-1-carboxylic-4-d acid] | 5.3 nM | 0.18 nM |  |
| Cc1cnn(C[C@@H]2c3c(OCc4nnn(C)c4C(F)F)ccc(Cl)c3CCN2C(=O)[C@@H]2CCCC[C@@H]2C(=O)O)c1 [Example 84, (1S,2R)-2-((S)-5-chloro-8-((5-(difluoromethyl)-1-methyl-1H-1,2,3-triazol-4-yl)methoxy)-1-((4-methyl-1H-pyrazol-1-yl)methyl)-1,2,3,4-tetrahydroisoquinoline-2-carbonyl)cyclohexane-1-carboxylic acid] | 6.1 nM |  | 36 nM |
| Cc1ncc(C(=O)N2CC[C@H](Oc3cccc4c3[C@@H](CN3C(=O)c5ccccc5C3=O)N(C(=O)[C@@H]3CCCC[C@@H]3C(=O)O)CC4)C2)s1 [Example 7, (1S,2R)-2-((S)-1-((1,3-dioxoisoindolin-2-yl)methyl)-8-(((S)-1-(2-methylthiazole-5-carbonyl)pyrrolidin-3-yl)oxy)-1,2,3,4-tetrahydroisoquinoline-2-carbonyl)cyclohexane-1-carboxylic acid] | 6.2 nM | 48 nM |  |
| O=C(O)[C@H]1CCCC[C@H]1C(=O)N1CCc2c(Br)ccc(O[C@H]3CCN(C(=O)c4cncs4)C3)c2[C@H]1CN1CCCC1=O [Example 63, (1S,2R)-2-((S)-5-bromo-1-((2-oxopyrrolidin-1-yl)methyl)-8-(((S)-1-(thiazole-5-carbonyl)pyrrolidin-3-yl)oxy)-1,2,3,4-tetrahydroisoquinoline-2-carbonyl)cyclohexane-1-carboxylic acid] | 9.1 nM | 84 nM |  |
| CC(C)n1cc(COc2ccc(Br)c3c2[C@@H](CN2Cc4ccccc4C2=O)N(C(=O)[C@@H]2CCCC[C@@H]2C(=O)O)CC3)nn1 [Example 35, (1S,2R)-2-((S)-5-Bromo-8-((1-isopropyl-1H-1,2,3-triazol-4-yl)methoxy)-1-((1-oxoisoindolin-2-yl)methyl)-1,2,3,4-tetrahydroisoquinoline-2-carbonyl)cyclohexane-1-carboxylic acid] | 9.9 nM | 7.5 nM |  |
| C[C@]1(C(=O)O)CCCC[C@H]1C(=O)N1CCc2c(Cl)ccc(OCc3noc4c(F)c(F)ccc34)c2[C@H]1CN1CCCC1=O [Example 165, (1S,2R)-2-((S)-5-chloro-8-((6,7-difluorobenzo[d]isoxazol-3-yl)methoxy)-1-((2-oxopyrrolidin-1-yl)methyl)-1,2,3,4-tetrahydroisoquinoline-2-carbonyl)-1-methylcyclohexane-1-carboxylic acid] | 8.4 nM | 11 nM |  |
| Cn1nnc(COc2ccc(Cl)c3c2[C@@H](CN2CC4(CC4)CC2=O)N(C(=O)[C@@H]2CCCC[C@]2(C)C(=O)O)CC3)c1C(F)F [Example 123, (1S,2R)-2-((S)-5-chloro-8-((5-(difluoromethyl)-1-methyl-1H-1,2,3-triazol-4-yl)methoxy)-1-((6-oxo-5-azaspiro[2.4]heptan-5-yl)methyl)-1,2,3,4-tetrahydroisoquinoline-2-carbonyl)-1-methylcyclohexane-1-carboxylic acid] | 5.8 nM | 0.26 nM |  |

Now from value to compound, other results behind:

| IC50 [2] | Structure (SMILES) | EC50 ([1]; BEAS-2B, 24 h) | EC50 [1] |
| --- | --- | --- | --- |
| 10 nM | CCn1cnc(COc2ccc(Br)c3c2[C@@H](CN2Cc4ccccc4C2=O)N(C(=O)[C@@H]2CCCC[C@@H]2C(=O)O)CC3)c1C#N [Example 43, (1S,2R)-2-((S)-5-bromo-8-((5-cyano-1-ethyl-1H-imidazol-4-yl)methoxy)-1-((1-oxoisoindolin-2-yl)methyl)-1,2,3,4-tetrahydroisoquinoline-2-carbonyl)cyclohexane-1-carboxylic acid] | 18 nM |  |
| 5.6 nM | COc1ccc(OCc2cn(C(C)C)nn2)c2c1CCN(C(=O)[C@@H]1CCCC[C@@H]1C(=O)O)[C@@H]2CN1Cc2ccccc2C1=O [Example 61, (1S,2R)-2-((S)-8-((1-isopropyl-1H-1,2,3-triazol-4-yl)methoxy)-5-methoxy-1-((1-oxoisoindolin-2-yl)methyl)-1,2,3,4-tetrahydroisoquinoline-2-carbonyl)cyclohexane-1-carboxylic acid] | 63 nM |  |
| 6.7 nM | CC(C)n1cc(COc2ccc(Br)c3c2[C@@H](CN2CC4(CC4)CC2=O)N(C(=O)[C@@H]2CCCC[C@@H]2C(=O)O)CC3)nn1 [Example 76, (1S,2R)-2-((S)-5-bromo-8-((1-isopropyl-1H-1,2,3-triazol-4-yl)methoxy)-1-((6-oxo-5-azaspiro[2.4]heptan-5-yl)methyl)-1,2,3,4-tetrahydroisoquinoline-2-carbonyl) cyclohexane-1-carboxylic acid] | 2.5 nM |  |
| 5.5 nM | Cc1scnc1COc1ccc(Cl)c2c1[C@@H](CN1CC3(CC3)CC1=O)N(C(=O)[C@@H]1CCCC[C@]1(C)C(=O)O)CC2 [Example 205, (1S,2R)-2-((S)-5-chloro-8-((5-methylthiazol-4-yl)methoxy)-1-((6-oxo-5-azaspiro[2.4]heptan-5-yl)methyl)-1,2,3,4-tetrahydroisoquinoline-2-carbonyl)-1-methylcyclohexane-1-carboxylic acid] | 19 nM |  |
| 9 nM | CC(C)n1ccnc1COc1ccc(Br)c2c1[C@@H](CN1Cc3ccccc3C1=O)N(C(=O)[C@@H]1CCCC[C@@H]1C(=O)O)CC2 [Example 40, (1S,2R)-2-((S)-5-bromo-8-((1-isopropyl-1H-imidazol-2-yl)methoxy)-1-((1-oxoisoindolin-2-yl)methyl)-1,2,3,4-tetrahydroisoquinoline-2-carbonyl)cyclohexane-1-carboxylic acid] | 94 nM |  |
| 6.3 nM | COCc1c(COc2ccc(Cl)c3c2[C@@H](CN2C[C@H](C)CC2=O)N(C(=O)[C@@H]2CCCC[C@]2(C)C(=O)O)CC3)nnn1C [Example 162, (1S,2R)-2-((S)-5-chloro-8-((5-(methoxymethyl)-1-methyl-1H-1,2,3-triazol-4-yl)methoxy)-1-(((R)-4-methyl-2-oxopyrrolidin-1-yl)methyl)-1,2,3,4-tetrahydroisoquinoline-2-carbonyl)-1-methylcyclohexane-1-carboxylic acid] | 2.4 nM |  |
| 9.2 nM | O=C(O)[C@H]1CCCC[C@H]1C(=O)N1CCc2c(Br)ccc(OCc3cccnn3)c2[C@H]1CN1Cc2ccccc2C1=O [Example 30] | 17 nM |  |
| 5.8 nM | Cn1nnc(COc2ccc(Cl)c3c2[C@@H](CN2CC4(CC4)CC2=O)N(C(=O)[C@@H]2CC[C@@H](O)C[C@]2(C)C(=O)O)CC3)c1C(F)F [Example 224, (1S,2R,5R)-2-((S)-5-chloro-8-((5-(difluoromethyl)-1-methyl-1H-1,2,3-triazol-4-yl)methoxy)-1-((6-oxo-5-azaspiro[2.4]heptan-5-yl)methyl)-1,2,3,4-tetrahydroisoquinoline-2-carbonyl)-5-hydroxy-1-methylcyclohexane-1-carboxylic acid] | 42 nM |  |
| 15 nM | Cn1cnc(COc2ccc(Br)c3c2[C@@H](CN2Cc4ccccc4C2=O)N(C(=O)[C@@H]2CCCC[C@@H]2C(=O)O)CC3)c1 [Example 25, (1S,2R)-2-((S)-5-Bromo-8-((1-methyl-1H-imidazol-4-yl)methoxy)-1-((1-oxoisoindolin-2-yl)methyl)-1,2,3,4-tetrahydroisoquinoline-2-carbonyl)cyclohexane-1-carboxylic acid 2,2,2-trifluoroacetic acid] | 150 nM |  |
